Article PMC8861568, “Identification of (Z)-2-benzylidene-dihydroimidazothiazolone derivatives as tyrosinase inhibitors: Anti-melanogenic effects and in silico studies” (Computational and Structural Biotechnology Journal, 2022)
“Also recorded” adds a separate entry of the source.

Columns and labels:
[1] = test system: mushroom tyrosinase (mTYR); test: Mushroom tyrosinase inhibition assay; format: biochemical, Agaricus bisporus; conditions: for IC50: mushroom tyrosinase, L-tyrosine substrate
Method: The tyrosinase inhibitory activity assays on the synthesized DHIT derivatives 1a – 1 k was performed using mushroom tyrosinase (mTYR), as previously described with minor modification. […] The optical densities of dopachrome produced during incubation were measured using a microplate reader (VersaMax™, Molecular Devices, Sunnyvale, CA, USA) at 492 nm. […] All experiments were conducted in triplicate. To calculate the tyrosinase inhibitory activities, the following formula was used: % inhibition = [(1− (A/B)) × 100], where A is test sample optical density and B is the optical density of the non-treated control.
IC50 values were calculated by plotting linear regression curves of percentage inhibitions versus derivative concentrations. The negative control was obtained by adding dimethyl sulfoxide (DMSO) instead of a DHIT derivative.

[2] = target: mushroom tyrosinase (mTYR) (Agaricus bisporus, UniProt C7FF04); test: Kinetics of mTYR inhibition (Lineweaver-Burk plots); format: biochemical; conditions: for mode of mTYR inhibition: Lineweaver-Burk plots, L-tyrosine; for Vmax: independent of inhibitor concentration
Method: Lineweaver-Burk double reciprocal plots were used to determine their inhibitory modes of action. Kinetic analyses were carried out using four concentrations of DHIT derivatives 1b (0, 0.0625, 0.125, or 0.25 μM) and 1f (0, 1, 2, or 4 μM) in the presence of different concentrations of L-tyrosine (0.5, 1, 2, 4, 8, or 16 mM for 1b and 1, 2, 4, or 8 mM for 1f). Lineweaver-Burk double reciprocal plots produced four different lines with different slopes, corresponding to the four concentrations, for each derivative. […] KM values were 1.515, 7.846, 15.740, and 23.586 mM at […], and 3.758, 4.892, 5.206, and 8.127 mM at 0, 1, 2, and 4 μM of 1f, respectively. […] The binding abilities of compounds 1b and 1f to the active site of tyrosinase were also supported by in silico docking simulation results (Figs. 5 and 6).
Lineweaver-Burk plots were used to determine modes of mTYR inhibition. Compounds 1b or 1f (10 μL, final concentrations: 0, 0.0625, 0.125, or 0.25 μM for 1b and 0, 1, 2 or 4 μM for 1f) and mTYR solution (20 μL, 150 units) were added to a 96-well plate containing 170 μL of a mixture containing aqueous L-tyrosine solution at final concentrations of 0.5, 1.0, 2.0, 4.0, 8.0, or 16 mM for 1b or 1.0, 2.0, 4.0, or 8.0 mM for 1f; aqueous L-tyrosine solution, distilled water, and 50 mM potassium phosphate buffer (pH 6.5) in the ratio 10:9:10. Initial rates of dopachrome formations in reaction mixtures were calculated by measuring increases in optical density at 492 nm (ΔOD492/min) using a microplate reader (VersaMax^TM, Molecular Devices, Sunnyvale, CA, USA). Maximum velocities of tyrosinase-L-tyrosine reactions were determined using Lineweaver-Burk plots (inverse of reaction velocity (1/V) versus the inverse of L-tyrosine concentration (1/[S])) obtained using 4 – 5 different concentrations of L-tyrosine. Modes of tyrosinase inhibition were determined using convergence points of plots.

B16F10 cells = test: Cell viability, EZ-cytox assay; format: cell-based, murine; conditions: up to 20 μM, 48 h
Method: Before examining inhibitory effects of compounds 1b and 1f on cellular tyrosinase activity, we examined their cytotoxic effects on B16F10 murine cells using the EZ-cytox assay (Daeil Lab Service, Seoul, Korea). After B16F10 cells had been cultured for 24 h, cells were treated with different concentrations (0, 1, 2, 5, 10 or 20 μM) of 1b or 1f for 48 h in a humidified atmosphere. Optical densities (ODs) were measured at 450 nm using a microplate reader.
Cell viability assays were performed at 37 °C as previously described with minor modification using the EZ-cytox assay. In brief, B16F10 melanoma cells were seeded in 96-well plates at a density of 1 × 10^4 cells/well and incubated in a humidified 5% CO2 atmosphere for 24 h at 37 °C. Cells were then treated with compounds 1b or 1f at 0, 1, 2, 5, 10, or 20 µM/well for 48 h. EZ-cytox solution (10 µL) (Daeil Lab Service, Seoul, Korea) was then added to each well and incubated for 1 h at 37 °C. Cell viabilities were assessed by measuring absorbances at 450 nm using a microplate reader (VersaMax^TM, Molecular Devices, Sunnyvale, CA, USA). All experiments were independently conducted three times.

mushroom tyrosinase (mTYR) (Agaricus bisporus, UniProt C7FF04), sequence (C7FF04 1-392): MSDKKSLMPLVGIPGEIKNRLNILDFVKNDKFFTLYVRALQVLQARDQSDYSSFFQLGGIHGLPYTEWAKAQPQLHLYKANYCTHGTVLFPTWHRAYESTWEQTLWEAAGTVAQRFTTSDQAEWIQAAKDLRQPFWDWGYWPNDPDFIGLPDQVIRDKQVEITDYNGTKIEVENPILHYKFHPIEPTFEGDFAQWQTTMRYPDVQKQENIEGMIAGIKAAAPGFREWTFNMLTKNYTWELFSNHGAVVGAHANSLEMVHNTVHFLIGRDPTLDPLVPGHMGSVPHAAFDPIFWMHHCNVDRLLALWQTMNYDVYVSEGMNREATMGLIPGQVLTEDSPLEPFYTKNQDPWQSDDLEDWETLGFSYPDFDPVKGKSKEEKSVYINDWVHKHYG

| SMILES | mushroom tyrosinase inhibition compared with kojic acid [1] | IC50 [1] [nM] | fold more potent tyrosinase inhibition than MHY773 ([1]; ratio of IC50 values) [fold] | mode of mTYR inhibition [2] | Ki ([2]; at 0.0625 μM of 1b) [nM] | Ki ([2]; at 0.125 μM of 1b) [nM] | Ki ([2]; at 0.25 μM of 1b) [nM] | Vmax [2] [mM/min] | cytotoxic effect on B16F10 cells (B16F10 cells) | fold stronger tyrosinase inhibitor than kojic acid ([1]; ratio of IC50 values) [fold] | Ki ([2]; at 1 μM of 1f) [nM] | Ki ([2]; at 2 μM of 1f) [nM] | Ki ([2]; at 4 μM of 1f) [nM] |
| --- | --- | --- | --- | --- | --- | --- | --- | --- | --- | --- | --- | --- | --- |
| O=c1/c(=C/c2ccc(O)cc2O)sc2n1CCN=2 [Compound 1b, (Z)-2-(2,4-Dihydroxybenzylidene)-5,6-dihydroimidazo[2,1-b]thiazol-3(2H)-one] | inhibited mTYR more than kojic acid | 880 ± 910 | ~3.3 | competitive inhibitors; also recorded: competitively inhibited | 15 | 13.3 | 17.2 | 0.0126 | without perceptible cytotoxicity; also recorded: Neither 1b nor 1f had a significant cytotoxic effect | – | – | – | – |
| COc1ccc(/C=c2\sc3n(c2=O)CCN=3)cc1O [Compound 1f, (Z)-2-(3-Hydroxy-4-methoxybenzylidene)-5,6-dihydroimidazo[2,1-b]thiazol-3(2H)-one] | inhibited mTYR more than kojic acid | 17100 ± 1010 | – | competitive inhibitors; also recorded: competitively inhibited | – | – | – | 0.0103 | without perceptible cytotoxicity; also recorded: Neither 1b nor 1f had a significant cytotoxic effect | 4.9 | 3310 | 5190 | 3440 |
